In US10988459B2 (priority 2015, dated 2021):

Target: human RIP1 kinase domain (2-375) (Homo sapiens (Human), UniProt Q13546)
Test: biochemical
Type: biochemical
Conditions: Table 1; apparent Ki (Morrison tight-binding fit); 50 nM RIP1 kinase domain, 50 uM ATP, 2 hours incubation; read-out: RIP1 Ki
Summary of the method: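 50 nM purified kinase domain from baculovirus-infected insect cells, incubated 2 h with compound in 50 mM Hepes pH 7.5, 30 mM MgCl2, 1 mM DTT, 50 uM ATP, 0.002% Brij-35, 0.5% DMSO. ADP formation read by Transcreener FP at 633 nm excitation. Ki^app fitted with the Morrison tight-binding equation.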

human RIP1 kinase domain (2-375), sequence (Q13546 2-375): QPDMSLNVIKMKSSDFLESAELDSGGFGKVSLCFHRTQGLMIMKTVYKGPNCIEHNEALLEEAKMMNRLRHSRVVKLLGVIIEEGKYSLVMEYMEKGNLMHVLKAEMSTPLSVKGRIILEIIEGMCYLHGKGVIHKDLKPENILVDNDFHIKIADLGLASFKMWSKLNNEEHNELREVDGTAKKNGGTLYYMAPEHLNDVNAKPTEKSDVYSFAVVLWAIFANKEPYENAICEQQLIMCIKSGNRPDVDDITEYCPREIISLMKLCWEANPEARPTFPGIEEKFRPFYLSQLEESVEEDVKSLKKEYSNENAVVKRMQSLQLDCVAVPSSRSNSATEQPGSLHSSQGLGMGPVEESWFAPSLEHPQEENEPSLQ

Question: Which Ki does the source give for `O=C(N[C@H]1CCc2cc(Cl)ccc2NC1=O)c1n[nH]c2c1CCC2` [Example 49, (S)-N-(7-chloro-2-oxo-2,3,4,5-tetrahydro-1H-benzo[b]azepin-3-yl)-1,4,5,6-tetrahydrocyclopenta[c]pyrazole-3-carboxamide] here?
Answer: 7600 nM

Question: Which Ki does the source give for `CC12Cc3[nH]nc(C(=O)N[C@H]4CCc5cc(Cl)ccc5NC4=O)c3CC1C2` (stereo partly drawn) [Example 50, N-((S)-7-chloro-2-oxo-2,3,4,5-tetrahydro-1H-benzo[b]azepin-3-yl)-5a-methyl-1,4,4a,5,5a,6-hexahydrocyclopropa[f]indazole-3-carboxamide] here?
Answer: 3900 nM

Question: `CN1C(=O)[C@@H](NC(=O)c2ccc3c(n2)CCCC3)COc2ccccc21` [Example 51, (S)-N-(5-methyl-4-oxo-2,3,4.5-tetrahydrobenzo[b][1,4]oxazepin-3-yl)-5,6,7,8-tetrahydroquinoline-2-carboxamide] was tested. Which Ki did it give?
Answer: 8900 nM

Question: Which Ki does the source give for `CN1C(=O)[C@@H](NC(=O)c2nnc3ccc(Cl)nn23)COc2ccccc21` [Example 52, (S)-6-chloro-N-(5-methyl-4-oxo-2,3,4,5-tetrahydrobenzo[b][1,4]oxazepin-3-yl)-[l,2,4]triazolo[4,3-b]pyridazinc-3-carboxamide] here?
Answer: 1200 nM

Question: With `CC1(C)CCc2c(C(=O)N[C@H]3CCc4cc(Cl)ccc4NC3=O)n[nH]c2C1` [Example 53, (S)-N-(7-chloro-2-oxo-2,3,4,5-tetrahydro-1H-benzo[b]azepin-3-yl)-6,6-dimethyl-4,5,6,7-tetrahydro-1H-indazole-3-carboxamide] as the compound, how does the Ki read?
Answer: 4500 nM

Question: For `O=C(N[C@H]1COc2ccccc2NC1=O)c1n[nH]c2c1C1CC1CC2` (stereo partly drawn) [Example 54, N-((S)-4-oxo-2,3,4,5-tetrahydrobenzo[b][1,4]oxazepin-3-yl)-3,4,5,5a,6,6a-hexahydrocyclopropa[e]indazole-1-carboxamide], which Ki is on record?
Answer: 7700 nM

Question: How did the Ki turn out when `CN1C(=O)[C@@H](NC(=O)c2n[nH]c3c2CC2CC2C3)COc2ccccc21` (stereo partly drawn) [Example 56, N-((S)-5-methyl-4-oxo-2,3,4,5-tetrahydrobenzo[b][1,4]oxazepin-3-yl)-1,4,4a,5,5a,6-hexahydrocyclopropa[f]indazole-3-carboxamide] was run?
Answer: 922 nM

Question: How did the Ki turn out when `CC1CCc2[nH]nc(C(=O)N[C@H]3COc4ccccc4NC3=O)c2C1` (stereo partly drawn) [Example 57, 5-methyl-N-((S)-4-oxo-2,3,4,5-tetrahydrobenzo[b][1,4]oxazepin-3-yl)-4,5,6,7-tetrahydro-1H-indazole-3-carboxamide] was run?
Answer: 276 nM

Question: With `CN1C(=O)[C@@H](NC(=O)c2n[nH]c3c2C2CC2CC3)COc2ccccc21` (stereo partly drawn) [Example 59, N-((S)-5-methyl-4-oxo-2,3,4,5-tetrahydrobenzo[b][1,4]oxazepin-3-yl)-3,4,5,5a,6,6a-hexahydrocyclopropa[e]indazole-1-carboxamide] as the compound, how does the Ki read?
Answer: 1700 nM

Question: For `CC1CCc2noc(C(=O)N[C@H]3COc4ccccc4NC3=O)c2C1` (stereo partly drawn) [Example 62, 5-methyl-N-((S)-4-oxo-2,3,4,5-tetrahydrobenzo[b][1,4]oxazepin-3-yl)-4,5,6,7-tetrahydrobenzo[c]isoxazole-3-carboxamide], which Ki is on record?
Answer: 254 nM

Question: Which Ki does the source give for `CC1CCc2onc(C(=O)N[C@H]3COc4ccccc4NC3=O)c2C1` (stereo partly drawn) [Example 63, 5-methyl-N-((S)-4-oxo-2,3,4,5-tetrahydrobenzo[b][1,4]oxazepin-3-yl)-4,5,6,7-tetrahydrobenzo[d]isoxazole-3-carboxamide] here?
Answer: 740 nM

Question: How did the Ki turn out when `CN1C(=O)[C@@H](NC(=O)c2noc3c2CC(C(C)(C)C)CC3)COc2ccccc21` (stereo partly drawn) [Example 64, 5-(tert-butyl)-N-((S)-5-methyl-4-oxo-2,3,4,5-tetrahydrobenzo[b][1,4]oxazepin-3-yl)-4,5,6,7-tetrahydrobenzo[d]isoxazole-3-carboxamide] was run?
Answer: 73.5 nM

Question: For `CC(C)(C)C1CCc2onc(C(=O)N[C@H]3COc4ccccc4NC3=O)c2C1` (stereo partly drawn) [Example 65, 5-(tert-butyl)-N-((S)-4-oxo-2,3,4,5-tetrahydrobenzo[b][1,4]oxazepin-3-yl)-4,5,6,7-tetrahydrobenzo[d]isoxazole-3-carboxamide], which Ki is on record?
Answer: 404 nM

Question: Which Ki does the source give for `CC1CCc2noc(C(=O)N[C@H]3COc4ccccc4N(C)C3=O)c2C1` (stereo partly drawn) [Example 66, 5-methyl-N-((S)-5-methyl-4-oxo-2,3,4,5-tetrahydrobenzo[b][1,4]oxazepin-3-yl)-4,5,6,7-tetrahydrobenzo[c]isoxazole-3-carboxamide] here?
Answer: 37.4 nM

Question: `CC1CCc2onc(C(=O)N[C@H]3COc4ccccc4N(C)C3=O)c2C1` (stereo partly drawn) [Example 67, 5-methyl-N-((S)-5-methyl-4-oxo-2,3,4,5-tetrahydrobenzo[b][1,4]oxazepin-3-yl)-4,5,6,7-tetrahydrobenzo[d]isoxazole-3-carboxamide] was tested. Which Ki did it give?
Answer: 107 nM

Question: For `C[C@H]1CCc2onc(C(=O)N[C@H]3COc4ccccc4N(C)C3=O)c2C1` [Example 68, (S)-5-methyl-N-((S)-5-methyl-4-oxo-2,3,4,5-tetrahydrobenzo[b][1,4]oxazepin-3-yl)-4,5,6,7-tetrahydrobenzo[d]isoxazole-3-carboxamide], which Ki is on record?
Answer: 53.8 nM

Question: Which Ki does the source give for `C[C@H]1CCc2noc(C(=O)N[C@H]3COc4ccccc4N(C)C3=O)c2C1` [Example 69, (S)-5-methyl-N-((S)-5-methyl-4-oxo-2,3,4,5-tetrahydrobenzo[b][1,4]oxazepin-3-yl)-4,5,6,7-tetrahydrobenzo[c]isoxazole-3-carboxamide] here?
Answer: 84.5 nM

Question: With `C[C@@H]1CCc2onc(C(=O)N[C@H]3COc4ccccc4N(C)C3=O)c2C1` [Example 70, (R)-5-methyl-N-((S)-5-methyl-4-oxo-2,3,4,5-tetrahydrobenzo[b][l,4]oxazepin-3-yl)-4,5,6,7-tetrahydrobenzo[d]isoxazole-3-carboxamide] as the compound, how does the Ki read?
Answer: 219 nM

Question: With `C[C@@H]1CCc2noc(C(=O)N[C@H]3COc4ccccc4N(C)C3=O)c2C1` [Example 71, (R)-5-methyl-N-((S)-5-methyl-4-oxo-2,3,4,5-tetrahydrobenzo[b][1,4]oxazepin-3-yl)-4,5,6,7-tetrahydrobenzo[c]isoxazole-3-carboxamide] as the compound, how does the Ki read?
Answer: 19.2 nM

Question: How did the Ki turn out when `Cc1cc2n(n1)CCC(NC(=O)c1ncn(Cc3ccccc3)n1)C(=O)N2C` (stereo not shown) [Example 72, 1-benzyl-N-(2,4-dimethyl-5-oxo-5,6,7,8-tetrahydro-4H-pyrazolo[1,5-a][1,3]diazepin-6-yl)-1H-1,2,4-triazole-3-carboxamide] was run?
Answer: 68 nM

Question: How did the Ki turn out when `CN1C(=O)[C@@H](NC(=O)c2ncn(Cc3ccccc3)n2)CCn2nccc21` [Example 73, (S)-1-benzyl-N-(4-methyl-5-oxo-5,6,7,8-tetrahydro-4H-pyrazolo[1,5-a][1,3]diazepin-6-yl)-1H-1,2,4-triazole-3-carboxamide] was run?
Answer: 27 nM

Question: For `CCC1CCc2n[nH]c(C(=O)N[C@H]3COc4ccccc4N(C)C3=O)c2C1` (stereo partly drawn) [Example 74, 5-ethyl-N-((S)-5-methyl-4-oxo-2,3,4,5-tetrahydrobenzo[b][1,4]oxazepin-3-yl)-4,5,6,7-tetrahydro-2H-indazole-3-carboxamide], which Ki is on record?
Answer: 13 nM

Question: `CN1C(=O)[C@@H](NC(=O)c2ncn3ccc(C(F)(F)F)cc23)CCn2nccc21` [Example 75, (S)-N-(4-methyl-5-oxo-5,6,7,8-tetrahydro-4H-pyrazolo[1,5-a][1,3]diazepin-6-yl)-7-(trifluoromethyl)imidazo[1,5-a]pyridine-1-carboxamide] was tested. Which Ki did it give?
Answer: 231 nM

Question: `Cc1cc2n(n1)CCC(NC(=O)c1ncn3ccc(C(F)(F)F)cc13)C(=O)N2C` (stereo not shown) [Example 76, N-(2,4-dimethyl-5-oxo-5,6,7,8-tetrahydro-4H-pyrazolo[1,5-a][1,3]diazepin-6-yl)-7-(trifluoromethyl)imidazo[1,5-a]pyridine-1-carboxamide] was tested. Which Ki did it give?
Answer: 536 nM

Question: `Cc1cc2n(n1)CC[C@H](NC(=O)c1nnc(Cc3ccccc3)[nH]1)C(=O)N2C` [Example 77, (S)-5-benzyl-N-(2,4-dimethyl-5-oxo-5,6,7,8-tetrahydro-4H-pyrazolo[1,5-a][1,3]diazepin-6-yl)-4H-1,2,4-triazole-3-carboxamide] was tested. Which Ki did it give?
Answer: 58 nM

Question: For `CN1C(=O)[C@@H](NC(=O)c2n[nH]c3ccc(Cl)cc23)COc2ccccc21` [Example 78, (S)-5-chloro-N-(5-methyl-4-oxo-2,3,4,5-tetrahydrobenzo[b][1,4]oxazepin-3-yl)-1H-indazole-3-carboxamide], which Ki is on record?
Answer: 21 nM

Question: With `CN1C(=O)[C@@H](NC(=O)c2nnc(Cc3ccccc3)[nH]2)CCn2nc(C3CC3)cc21` [Example 79, (S)-5-benzyl-N-(2-cyclopropyl-4-methyl-5-oxo-5,6,7,8-tetrahydro-4H-pyrazolo[1,5-a][1,3]diazepin-6-yl)-4H-1,2,4-triazole-3-carboxamide] as the compound, how does the Ki read?
Answer: 34 nM

Same assay, conditions: read-out: RIP1 Ki

Question: How did the Ki turn out when `C[C@H]1CCc2[nH]nc(C(=O)N[C@H]3COc4ccccc4N(C)C3=O)c2C1` [Example 55, (S)-5-methyl-N-((S)-5-methyl-4-oxo-2,3,4,5-tetrahydrobenzo[b][1,4]oxazepin-3-yl)-4,5,6,7-tetrahydro-1H-indazole-3-carboxamide] was run?
Answer: 103 nM

Question: `CN1C(=O)[C@@H](NC(=O)c2n[nH]c3c2C[C@@H](C(C)(C)C)CC3)COc2ccccc21` [Example 58, (S)-5-(tert-butyl)-N-((S)-5-methyl-4-oxo-2,3,4,5-tetrahydrobenzo[b][1,4]oxazepin-3-yl)-4,5,6,7-tetrahydro-1H-indazole-3-carboxamide] was tested. Which Ki did it give?
Answer: 121 nM

Question: Which Ki does the source give for `C[C@@H]1CCc2[nH]nc(C(=O)N[C@H]3COc4ccccc4N(C)C3=O)c2C1` [Example 60, (R)-5-methyl-N-((S)-5-methyl-4-oxo-2,3,4,5-tetrahydrobenzo[b][1,4]oxazepin-3-yl)-4,5,6,7-tetrahydro-1H-indazole-3-carboxamide] here?
Answer: 15.6 nM

Question: `CN1C(=O)[C@@H](NC(=O)c2n[nH]c3c2C[C@H](C(C)(C)C)CC3)COc2ccccc21` [Example 61, (R)-5-(tert-butyl)-N-((S)-5-methyl-4-oxo-2,3,4,5-tetrahydrobenzo[b][1,4]oxazepin-3-yl)-4,5,6,7-tetrahydro-1H-indazole-3-carboxamide] was tested. Which Ki did it give?
Answer: 48 nM
